Measurements reported in patent publication US20210047324A1 (Aptinyx Inc., priority 2018, published 2021).
“And” between values parts separate entries of the source, which are not always exact repeats. Identical values can stand only once.

Tests used:
[1] = biological target: T1, NMDAR2B (Homo sapiens, UniProt Q13224); experiment: NMDAR agonist assay, [3H]MK-801 binding, NMDAR2B expressing HEK cell membranes; type: biochemical; conditions: 50 μM glutamate; for EC50: read-out: NMDAR2B B: log EC50 (converted); for Emax / NMDAR2B A: % maximal [3H]MK-801 binding relative to 1 mM glycine: relative to 1 mM glycine; for Emax: read-out: NMDAR2B A: % maximal [3H]MK-801 binding relative to 1 mM glycine
T1 construct: expressed in transfected cells; host or cells: HEK cells (membrane extract)
T1 sequence (Q13224 27-1484, species assumed, other chains not shown): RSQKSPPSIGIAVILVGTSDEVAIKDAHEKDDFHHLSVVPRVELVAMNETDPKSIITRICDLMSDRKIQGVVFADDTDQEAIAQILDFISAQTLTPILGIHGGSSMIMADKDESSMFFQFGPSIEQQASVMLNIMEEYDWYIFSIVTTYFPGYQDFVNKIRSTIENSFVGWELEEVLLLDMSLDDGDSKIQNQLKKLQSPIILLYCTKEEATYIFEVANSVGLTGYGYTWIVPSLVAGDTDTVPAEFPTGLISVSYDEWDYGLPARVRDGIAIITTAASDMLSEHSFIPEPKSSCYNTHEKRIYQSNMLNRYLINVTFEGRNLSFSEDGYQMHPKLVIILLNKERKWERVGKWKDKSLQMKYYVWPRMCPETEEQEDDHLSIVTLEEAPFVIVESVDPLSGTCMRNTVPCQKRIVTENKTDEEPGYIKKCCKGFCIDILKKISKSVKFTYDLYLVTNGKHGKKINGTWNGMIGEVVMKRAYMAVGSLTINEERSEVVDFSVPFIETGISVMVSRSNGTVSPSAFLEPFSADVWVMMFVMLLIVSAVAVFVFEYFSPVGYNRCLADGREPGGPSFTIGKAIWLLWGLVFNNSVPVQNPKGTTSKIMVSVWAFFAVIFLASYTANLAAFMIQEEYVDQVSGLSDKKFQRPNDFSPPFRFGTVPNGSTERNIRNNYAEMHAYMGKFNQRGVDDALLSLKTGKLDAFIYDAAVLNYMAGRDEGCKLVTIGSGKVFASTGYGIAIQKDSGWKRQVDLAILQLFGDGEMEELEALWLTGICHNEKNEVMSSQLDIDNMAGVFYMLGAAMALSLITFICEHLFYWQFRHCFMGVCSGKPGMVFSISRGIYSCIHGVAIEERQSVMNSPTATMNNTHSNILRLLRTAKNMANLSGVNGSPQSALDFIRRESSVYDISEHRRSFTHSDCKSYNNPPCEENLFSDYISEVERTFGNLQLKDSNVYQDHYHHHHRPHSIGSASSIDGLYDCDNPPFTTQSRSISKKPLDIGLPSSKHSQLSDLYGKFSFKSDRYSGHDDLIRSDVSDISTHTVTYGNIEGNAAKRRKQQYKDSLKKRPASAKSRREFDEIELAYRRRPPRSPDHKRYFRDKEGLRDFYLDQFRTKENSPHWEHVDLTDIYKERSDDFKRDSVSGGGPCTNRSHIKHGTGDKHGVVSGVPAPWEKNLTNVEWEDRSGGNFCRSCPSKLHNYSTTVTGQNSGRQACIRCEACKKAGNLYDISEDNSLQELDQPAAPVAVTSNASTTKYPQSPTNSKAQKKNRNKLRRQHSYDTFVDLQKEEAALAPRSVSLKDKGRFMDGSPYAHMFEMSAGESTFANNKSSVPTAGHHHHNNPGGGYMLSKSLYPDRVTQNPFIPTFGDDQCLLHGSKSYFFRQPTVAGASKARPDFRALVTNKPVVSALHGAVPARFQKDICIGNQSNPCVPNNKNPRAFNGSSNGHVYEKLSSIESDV
Protocol: (§1) Assays were conducted as described by Moskal et al., “GLYX-13: a monoclonal antibody-derived peptide that acts as an N-methyl-D-aspartate receptor modulator,” Neuropharmacology, 49, 1077-87, 2005. These studies were designed to determine if the test compounds act to facilitate NMDAR activation in NMDAR2A, NMDAR2B, NMDAR2C or NMDAR2D expressing HEK cell membranes as measured by increases in [^3H]MK-801 binding.
(§2) In the assay, 300 μg of NMDAR expressing HEK cell membrane extract protein was preincubated for 15 minutes at […] in the presence of saturating concentrations of glutamate (50 μM) and varying concentrations of test compound (1×10^−15M-1×10^−7M), or 1 mM glycine. Following the addition of 0.3 μCi of [3H]MK-801 (22.5 Ci/mmol), reactions were again incubated for 15 minutes at 25° C. (nonequilibrium conditions). Bound and free [3H]MK-801 were separated via rapid filtration using a Brandel apparatus.
(§3) In analyzing the data, the DPM (disintegrations per minute) of [3H]MK-801 remaining on the filter were measured for each concentration of test compound or for 1 mM glycine. The DPM values for each concentration of a ligand (N=2) were averaged. The baseline value was determined from the best fit curve of the DPM values modeled using the GraphPad program and the log(agonist) vs. response (three parameters) algorithm was then subtracted from all points in the dataset. The % maximal [^3H]MK-801 binding was then calculated relative to that of 1 mM glycine: all baseline subtracted DPM values were divided by the average value for 1 mM glycine. The EC50 and % maximal activity were then obtained from the best fit curve of the % maximal [3H]MK-801 binding data modelled using the GraphPad program and the log(agonist) vs. response (three parameters) algorithm.
(§4) The tables below summarize the results for the wild type […] NMDAR2A, NMDAR2B, NMDAR2C, and NMDAR2D, and whether the compound is not an agonist (−), is an agonist (+), or is a strong agonist (++), where column A is based on the % maximal [3H]MK-801 binding relative to 1 mM glycine (−=0; <100%=+; and >100%=++); and column B is based on log EC50 values (0=−; ≥1×10^−9 M (e.g., −8)=+; and <1×10^−9 M (e.g., −10)=++).

[2] = Plasma stability (Human); type: in vitro ADME; conditions: after 60 minutes
Protocol: (§5) Plasma stability of disclosed compounds was investigated. The following table indicates the percent of compound remaining after 60 minutes.

[3] = biological target: T2, NMDAR2A (Homo sapiens, UniProt Q12879); experiment: NMDAR agonist assay, [3H]MK-801 binding, NMDAR2A expressing HEK cell membranes; type: biochemical; parameters: key to NMDAR2A B: log EC50: 0=−; ≥1×10^−9 M (e.g., −8)=+; <1×10^−9 M (e.g., −10)=++; conditions: 50 μM glutamate; for EC50: read-out: NMDAR2A B: log EC50 (converted); for Emax: 0.25 h, read-out: NMDAR2A A: % maximal [3H]MK-801 binding relative to 1 mM glycine; for Emax / NMDAR2A A: % maximal [3H]MK-801 binding relative to 1 mM glycine: relative to 1 mM glycine
T2 construct: expressed in transfected cells; host or cells: HEK cells (membrane extract)
T2 sequence (Q12879 23-1464, species assumed, other chains not shown): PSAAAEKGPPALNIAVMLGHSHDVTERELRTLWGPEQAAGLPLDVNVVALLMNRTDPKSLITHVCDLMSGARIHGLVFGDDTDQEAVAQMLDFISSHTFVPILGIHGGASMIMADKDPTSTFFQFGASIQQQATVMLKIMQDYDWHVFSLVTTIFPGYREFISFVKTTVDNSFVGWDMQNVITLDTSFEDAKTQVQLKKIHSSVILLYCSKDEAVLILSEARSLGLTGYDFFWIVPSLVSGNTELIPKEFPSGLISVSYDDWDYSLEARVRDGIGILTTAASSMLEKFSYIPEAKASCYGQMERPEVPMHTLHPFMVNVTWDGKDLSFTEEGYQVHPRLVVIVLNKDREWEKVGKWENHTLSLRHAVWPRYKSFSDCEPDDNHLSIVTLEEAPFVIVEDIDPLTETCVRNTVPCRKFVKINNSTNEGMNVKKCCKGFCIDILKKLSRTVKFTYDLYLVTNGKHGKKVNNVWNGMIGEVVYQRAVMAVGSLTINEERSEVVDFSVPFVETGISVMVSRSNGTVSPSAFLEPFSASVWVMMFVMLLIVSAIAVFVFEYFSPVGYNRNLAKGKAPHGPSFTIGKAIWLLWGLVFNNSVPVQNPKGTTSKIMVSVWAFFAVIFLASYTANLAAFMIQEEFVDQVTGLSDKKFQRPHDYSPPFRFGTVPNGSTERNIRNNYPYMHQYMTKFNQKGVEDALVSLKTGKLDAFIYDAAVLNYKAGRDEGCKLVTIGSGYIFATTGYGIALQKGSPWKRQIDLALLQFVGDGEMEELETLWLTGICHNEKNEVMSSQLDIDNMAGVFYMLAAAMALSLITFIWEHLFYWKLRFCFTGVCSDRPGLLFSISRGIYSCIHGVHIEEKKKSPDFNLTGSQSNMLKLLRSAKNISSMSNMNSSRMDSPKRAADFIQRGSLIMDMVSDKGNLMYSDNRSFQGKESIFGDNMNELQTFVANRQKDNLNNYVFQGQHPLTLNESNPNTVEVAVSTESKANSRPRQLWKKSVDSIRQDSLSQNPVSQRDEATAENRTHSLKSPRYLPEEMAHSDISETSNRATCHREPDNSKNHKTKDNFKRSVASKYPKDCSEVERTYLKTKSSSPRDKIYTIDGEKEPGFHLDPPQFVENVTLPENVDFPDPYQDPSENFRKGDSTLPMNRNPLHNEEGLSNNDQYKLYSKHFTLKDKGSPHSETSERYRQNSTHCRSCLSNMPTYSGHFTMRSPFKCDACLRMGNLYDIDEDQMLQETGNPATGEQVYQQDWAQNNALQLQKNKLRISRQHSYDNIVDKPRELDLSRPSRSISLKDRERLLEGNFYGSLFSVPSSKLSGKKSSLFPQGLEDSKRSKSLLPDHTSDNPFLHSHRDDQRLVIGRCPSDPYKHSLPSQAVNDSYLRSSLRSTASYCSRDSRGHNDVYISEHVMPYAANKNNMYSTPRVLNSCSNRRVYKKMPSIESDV
Protocol: as §1, §2, §3, §4

[4] = Microsomal stability (Rat); type: in vitro ADME; conditions: after 60 minutes
Protocol: (§6) Microsomal stability of disclosed compounds was investigated. The following table indicates the percent of compound remaining after 60 minutes.

[5] = Plasma stability (Rat); type: in vitro ADME; conditions: after 60 minutes
Protocol: as §5

[6] = Microsomal stability (Human); type: in vitro ADME; conditions: after 60 minutes
Protocol: as §6

[7] = IV pharmacokinetics in Sprague Dawley rats; type: in vivo; conditions: Sprague-Dawley, rat, in vivo, iv, 2 mg/kg, normal saline; for Cmax: read-out: Cmax; for Vd: read-out: Vss
Protocol: Sprague Dawley rats were dosed intravenously using a normal saline formulation containing 2 mg/kg of the compounds identified in the below table. The table below summarizes the results of the IV pharmacokinetics.

[8] = Oral pharmacokinetics in Sprague Dawley rats (plasma, brain, CSF); type: in vivo; conditions: rat, 10 mg/kg; for Tmax / AUC(0-t) / bioavailability / Cmax: Sprague-Dawley, po, plasma; for Tmax / AUC(0-t) / Cmax / CSF Cmax / Brain Cmax: per os; for Tmax: read-out: Tmax; for bioavailability: per os 10 mg/kg; for Cmax: read-out: Cmax
Protocol: In another experiment, Sprague Dawley rats were dosed per os (oral gavage) using a normal saline formulation containing 10 mg/kg of the compounds identified in the table below. Plasma, brain, and CSF samples were analyzed at various time points over a 24 hour period. The table below summarizes the results of the oral pharmacokinetics, where the first three values (Tmax, Cmax and AUClast) are plasma values.

Row | SMILES | EC50 [1] [nM] | Emax [1] [%] | Plasma (Human): percent of compound remaining [2] | EC50 [3] [nM] | Emax [3] [%] | Microsomal (Rat): percent of compound remaining [4] [%] | Plasma (Rat): percent of compound remaining [5] [%] | Microsomal (Human): percent of compound remaining [6] [%] | NMDAR2B A: % maximal [3H]MK-801 binding relative to 1 mM glycine [1] | NMDAR2A A: % maximal [3H]MK-801 binding relative to 1 mM glycine [3] | other results
1 | O=C1NCC=CCC12CCCN2Cc1ccccc1 (single isomer, unassigned) [GP-1, 1-benzyl-1,7-diazaspiro[4.6]undec-9-en-6-one] | < 1 | > 100 | 98% | < 1 | < 100 | 2 | 96 | 80 |  |  | 
2 | O=C1N(Cc2ccccc2)CC=CCC12CCCN2 (single isomer, unassigned) [GS-2, 7-benzyl-1,7-diazaspiro[4.6]undec-9-en-6-one] | < 1 |  | 98% | ≥ 1 |  | 0 | 99 | 90 | + (<100%=+) | + (<100%=+) | 
3 | O=C1NCC=CCC12CCCN2Cc1ccc(F)cc1 (single isomer, unassigned) [GJ-2, 1-(4-fluorobenzyl)-1,7-diazaspiro[4.6]undec-9-en-6-one] | < 1 |  | 95% | < 1 |  | 3 | 99 | 95 | + (<100%=+) | + (<100%=+) | 
4 | CC(C)C(=O)N1CCCC12CC=CCNC2=O (single isomer, unassigned) [GH-1, 1-isobutyryl-1,7-diazaspiro[4.6]undec-9-en-6-one] | < 1 | < 100 | 103% and 96% | < 1 | < 100 | 100 | 102 | 104 |  |  | 
5 | O=C1NCCCCC12CCCNC2 (single isomer, unassigned) [CF, 2,8-diazaspiro[5.6]dodecan-7-one] | < 1 | < 100 | 107% | < 1 | < 100 | 88 | 91 | 91 |  |  | AUC(0-t) [7]: 1110 ng·h/mL; clearance [7]: 29.9 mL/min/kg; half-life [7]: 1.8 h; Cmax [7]: 1990 ng/mL; Vd [7]: 2.85 L/kg; Tmax [8]: 2 h; AUC(0-t) [8]: 1830 ng·h/mL; bioavailability [8]: 33%; Cmax [8]: 556 ng/mL; CSF Cmax [8]: 51.64 ng/mL; Brain Cmax [8]: 48.22 ng/mL
6 | NC(=O)CN1CCCC12CC=CCNC2=O (single isomer, unassigned) [GQ-2, 2-(6-oxo-1,7-diazaspiro[4.6]undec-9-en-1-yl)acetamide] | < 1 |  | 96% | < 1 |  | 102 | 97 | 94 | + (<100%=+) | + (<100%=+) | AUC(0-t) [7]: 1290 ng·h/mL; clearance [7]: 25.7 mL/min/kg; half-life [7]: 1.77 h; Cmax [7]: 2310 ng/mL; Vd [7]: 1.11 L/kg; Tmax [8]: 0.25 h; AUC(0-t) [8]: 5480 ng·h/mL; bioavailability [8]: 85%; Cmax [8]: 5390 ng/mL; CSF Cmax [8]: 1400.31 ng/mL; Brain Cmax [8]: 492.96 ng/mL
7 | O=C1NCC=CCC12CCCN2Cc1ccccc1 (single isomer, unassigned) [GP-2, 1-benzyl-1,7-diazaspiro[4.6]undec-9-en-6-one] | < 1 |  | 96% | < 1 |  | 7 | 85 | 89 | + (<100%=+) | ++ (>100%=++) | 
8 | O=C1N(Cc2ccc(F)cc2)CC=CCC12CCCN2 (single isomer, unassigned) [GK-2, 7-(4-fluorobenzyl)-1,7-diazaspiro[4.6]undec-9-en-6-one] | < 1 |  | 92% |  |  | 46 | 97 | 94 | + (<100%=+) | − (−=0) | NMDAR2A B: log EC50 [3]: −
9 | O=C1N(Cc2ccccc2)CC=CCC12CCCN2 (single isomer, unassigned) [GS-1, 7-benzyl-1,7-diazaspiro[4.6]undec-9-en-6-one] | < 1 | < 100 | 97% | < 1 | < 100 | 0 | 95 | 99 |  |  | 
10 | CC(C)CN1CCCC12CC=CCNC2=O (single isomer, unassigned) [GI-1, 1-isobutyl-1,7-diazaspiro[4.6]undec-9-en-6-one] | < 1 | < 100 | 96% | < 1 | < 100 | 69 | 102 | 96 |  |  | 
11 | O=C1NCC=CCC12CCCN2Cc1ccc(F)cc1 (single isomer, unassigned) [GJ-1, 1-(4-fluorobenzyl)-1,7-diazaspiro[4.6]undec-9-en-6-one] | < 1 | < 100 | 105% | < 1 | < 100 | 11 | 100 | 83 |  |  | 
12 | NC(=O)CN1CCCC12CC=CCNC2=O (single isomer, unassigned) [GQ-1, 2-(6-oxo-1,7-diazaspiro[4.6]undec-9-en-1-yl)acetamide] | ≥ 1 | > 100 | 98% | < 1 | < 100 | 87 | 98 | 88 |  |  | 
